Test results as given in PubChem BioAssay (NCI).
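Tested at 5 concentrations; 48 h exposure; 96-well plates; endpoints linearly interpolated, else capped at highest concentration. At the GI50, growth is halved. TGI: concentration producing complete growth inhibition.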

Assays:
Test in all cases: DTP human tumour cell line panel, 48 h
[1] = tested on: RPMI-8226 leukemia
[2] = tested on: EKVX NSCLC
[3] = tested on: A498 renal
[4] = tested on: LOX IMVI melanoma
[5] = tested on: HCT-116 colon
[6] = tested on: MDA-MB-468 breast
[7] = tested on: OVCAR-8 ovarian
[8] = tested on: KM12 colon
[9] = tested on: SK-OV-3 ovarian
[10] = tested on: U251 CNS
[11] = tested on: HOP-92 NSCLC
[12] = tested on: HOP-62 NSCLC
[13] = tested on: SF-268 CNS
[14] = tested on: UACC-62 melanoma
[15] = tested on: 786-0 renal
[16] = tested on: NCI-H522 lung
[17] = tested on: K-562 leukemia
[18] = tested on: M14 melanoma
[19] = tested on: SF-295 CNS
[20] = tested on: BT-549 breast
[21] = tested on: SR leukemia
[22] = tested on: ACHN renal
[23] = tested on: RXF 393 renal
[24] = tested on: NCI-H460 lung
[25] = tested on: OVCAR-3 ovarian
[26] = tested on: IGROV1 ovarian
[27] = tested on: SN12C renal
[28] = tested on: NCI-H226 lung
[29] = tested on: A549 NSCLC
[30] = tested on: SF-539 CNS
[31] = tested on: SK-MEL-2 melanoma
[32] = tested on: DU-145 prostate
[33] = tested on: UO-31 renal
[34] = tested on: HCT-15 colon
[35] = tested on: MDA-MB-231 breast
[36] = tested on: TK-10 renal
[37] = tested on: SNB-19 CNS
[38] = tested on: T-47D breast
[39] = tested on: OVCAR-5 ovarian
[40] = tested on: CCRF-CEM leukemia
[41] = tested on: HCC-2998 colon
[42] = tested on: COLO 205 colon
[43] = tested on: MOLT-4 leukemia
[44] = tested on: OVCAR-4 ovarian
[45] = tested on: SK-MEL-28 melanoma
[46] = tested on: HL-60(TB) leukemia
[47] = tested on: HT29 colon
[48] = tested on: HS 578T breast
[49] = tested on: PC-3 prostate
[50] = tested on: CAKI-1 renal
[51] = tested on: MCF7 breast
[52] = tested on: SK-MEL-5 melanoma
[53] = tested on: UACC-257 melanoma
[54] = tested on: SW-620 colon
[55] = tested on: NCI-H23 lung
[56] = tested on: MALME-3M melanoma

COc1ccccc1Nc1nnc(-c2c[nH]c3ccccc23)o1
GI50 [1]: 2.25 µM | TGI [1]: 16.9 µM | GI50 [2]: 2.63 µM | TGI [2]: > 100 µM | GI50 [3]: 17.8 µM | TGI [3]: 53.9 µM | GI50 [4]: 2.21 µM | TGI [4]: 18.2 µM | GI50 [5]: 5.38 µM | TGI [5]: 54 µM | GI50 [6]: 0.644 µM | TGI [6]: 3.37 µM | GI50 [7]: 2.87 µM | TGI [7]: 26.2 µM | GI50 [8]: 2.33 µM | TGI [8]: 16.5 µM | GI50 [9]: 1.93 µM | TGI [9]: 25.4 µM | GI50 [10]: 2.43 µM | TGI [10]: 16.4 µM | GI50 [11]: 4.55 µM | TGI [11]: 40.6 µM | GI50 [12]: 3.11 µM | TGI [12]: 40 µM | GI50 [13]: 3.77 µM | TGI [13]: > 100 µM | GI50 [14]: 1.39 µM | TGI [14]: 14.5 µM | GI50 [15]: 5.07 µM | TGI [15]: 22.7 µM | GI50 [16]: 0.476 µM | TGI [16]: 3.68 µM | GI50 [17]: 0.343 µM | TGI [17]: 79.3 µM | GI50 [18]: 0.982 µM | TGI [18]: 22.7 µM | GI50 [19]: 0.857 µM | TGI [19]: 5.69 µM | GI50 [20]: 3.07 µM | TGI [20]: 26 µM | GI50 [21]: 0.395 µM | TGI [21]: 46.4 µM | GI50 [22]: 5.4 µM | TGI [22]: 45.7 µM | GI50 [23]: 2.09 µM | TGI [23]: 8.14 µM | GI50 [24]: 1.66 µM | TGI [24]: 12.8 µM | GI50 [25]: 1.59 µM | TGI [25]: 9.55 µM | GI50 [26]: 0.682 µM | TGI [26]: 37.9 µM | GI50 [27]: 3.01 µM | TGI [27]: 16.4 µM | GI50 [28]: 4.69 µM | TGI [28]: > 100 µM | GI50 [29]: 2.99 µM | TGI [29]: > 100 µM | GI50 [30]: 1.63 µM | TGI [30]: 4.76 µM | GI50 [31]: 0.82 µM | TGI [31]: 2.82 µM | GI50 [32]: 4.26 µM | TGI [32]: > 100 µM | GI50 [33]: 3.65 µM | TGI [33]: 55 µM | GI50 [34]: 0.451 µM | TGI [34]: 21.8 µM | GI50 [35]: 2.91 µM | TGI [35]: 24.6 µM | GI50 [36]: 7.28 µM | TGI [36]: > 100 µM | GI50 [37]: 3.14 µM | TGI [37]: > 100 µM | GI50 [38]: 2.87 µM | TGI [38]: 25 µM | GI50 [39]: 4.99 µM | TGI [39]: 32.2 µM | GI50 [40]: 0.708 µM | TGI [40]: 21 µM | GI50 [41]: 2.55 µM | TGI [41]: 16.2 µM | GI50 [42]: 1.01 µM | TGI [42]: 11.2 µM | GI50 [43]: 0.716 µM | TGI [43]: 14.4 µM | GI50 [44]: 7.54 µM | TGI [44]: > 100 µM | GI50 [45]: 4.48 µM | TGI [45]: 24 µM | GI50 [46]: 0.625 µM | TGI [46]: 10.2 µM | GI50 [47]: 0.634 µM | TGI [47]: 14.6 µM | GI50 [48]: 2.2 µM | TGI [48]: 15.6 µM | GI50 [49]: 2.86 µM | TGI [49]: > 100 µM | GI50 [50]: 0.861 µM | TGI [50]: 80 µM | GI50 [51]: 0.614 µM | TGI [51]: 17.5 µM | GI50 [52]: 2.02 µM | TGI [52]: 5.81 µM | GI50 [53]: 4.95 µM | TGI [53]: 32.4 µM | GI50 [54]: 0.598 µM | TGI [54]: > 100 µM | GI50 [55]: 1.89 µM | TGI [55]: 16.6 µM | GI50 [56]: 0.816 µM | TGI [56]: 15 µM
